Laboratory results published in US11666630B2, “Polypeptides for managing viral infections” (priority 2016, dated 2023).
“Also recorded” adds a separate entry of the source. Where two headings read alike, the source gives them in different places. Peptide text beside a SMILES is read from it.

Assays:
ZIKV [1] = test: Transmission electron microscopy of peptide-treated ZIKV; details: 200 μM peptide, 10 min treatment
DENV 2 = test: FFA of DENV 2 incubated with peptide
[2] = test system: Recombinant hemagglutinins from three H3 viruses; assay type: binding, influenza virus; details: biotinylated Yodha peptide, streptavidin PE detection
ZIKV (PRVABC59) = test: Immunofluorescence of ZIKV envelope in Vero cells; assay type: cell-based, Zika virus; details: ZIKV exposed to peptide before infection
ZIKV (PRVABC59 strain) = details: for reduction of ZIKV: dose escalation, FFA; for activity of truncated and mutant Yodha peptides against ZIKV compared with parent peptide: FIG. 7E
[3] = test system: H7 avian influenza hemagglutinin; assay type: binding; details: biotinylated Yodha peptide, streptavidin PE detection
influenza viruses = assay type: cell-based, influenza virus
DENV 3 = test: FFA of DENV 3 incubated with peptide
Clade B HIV = test: HIV inhibition, graded doses of peptide; assay type: cell-based; details: 40 uM peptide
Experimental: (§1) FIG. 10A. […] Clades A, B and C HIV viruses were exposed to graded doses (5 um-160 uM) of either Yodha peptide or control OVA peptide.

Clade A HIV = test: HIV inhibition, graded doses of peptide; assay type: cell-based; details: 40 uM peptide
Experimental: as §1

Clade C HIV = test: HIV inhibition, graded doses of peptide; assay type: cell-based; details: 40 uM peptide
Experimental: as §1

[4] = test system: H2 avian influenza hemagglutinin; assay type: binding; details: biotinylated Yodha peptide, streptavidin PE detection
H3N1 = assay type: cell-based, influenza virus
H1N1 = assay type: cell-based, human influenza virus; details: incubated with virus at 37° C. for 1 hour, MDCK cells
PRVABC ZIKV = test: ZIKV infection of anti-Ifnar1 mAb treated mice, viremia and viral burden by real time PCR
DENV 4 = test: FFA of DENV 4 incubated with peptide
H1N2 = assay type: cell-based, influenza virus
H3N2 = assay type: cell-based, human influenza virus; details: incubated with virus at 37° C. for 1 hour, MDCK cells
DENV 1 = test: FFA of DENV 1 incubated with peptide
[5] = test system: H9 avian influenza hemagglutinin; assay type: binding; details: biotinylated Yodha peptide, streptavidin PE detection
[6] = test system: H5 avian influenza hemagglutinin; assay type: binding; details: biotinylated Yodha peptide, streptavidin PE detection
ZIKV [7] = test: Peptide treatment of Vero cells already infected with ZIKV, FFU assay of culture supernatants; assay type: cell-based, Zika virus; details: for ZIKV in culture supernatant: 3 hours post-infection, peptide 40 μM
ZIKV [8] = test: ZIKV entry into Vero cells, viral RNA by qRT-PCR; details: ZIKV pre-incubated with 200 μM peptide

CC[C@H](C)[C@H](NC(=O)[C@@H](NC(=O)CNC(=O)[C@H](CC(C)C)NC(=O)[C@H](Cc1ccccc1)NC(=O)[C@H](Cc1ccccc1)NC(=O)[C@H](CC(C)C)NC(=O)[C@H](CC(C)C)NC(=O)[C@H](CC(C)C)NC(=O)[C@H](CCSC)NC(=O)[C@@H](N)CO)[C@@H](C)O)C(=O)N[C@@H](CO)C(=O)N[C@@H](CC(C)C)C(=O)N[C@@H](CO)C(=O)N[C@@H](CC(C)C)C(=O)N[C@@H](CS)C(=O)N[C@@H](CCC(N)=O)C(=O)N[C@@H](CC(=O)O)C(=O)N[C@@H](CC(=O)O)C(=O)N[C@@H](CCC(N)=O)C(=O)N[C@@H](CCC(=O)O)C(=O)N[C@@H](CCCNC(=N)N)C(=O)N[C@@H](CS)C(=O)O [Yodha peptide] (H-SMLLLFFLGTISLSLCQDDQERC-OH; N-terminus and C-terminus assumed)
morphology of ZIKV particles (electron microscopy) (ZIKV [1]): disruption of viral particles | virucidal activity against DENV 2 (DENV 2): virucidal; also recorded: neutralizes | neutralization of DENV 2 (DENV 2; 50 μM peptide): easily neutralized; also recorded: effective | binding to HA from H3 viruses [2]: binds | expression of ZIKV envelope in Vero cells (immunofluorescence) (ZIKV (PRVABC59)): decreased expression of ZIKV envelope | time of exposure to virus within which the virus is neutralized (ZIKV (PRVABC59 strain)): ≤ 5 min | reduction of ZIKV (ZIKV (PRVABC59 strain); 10 μM peptide): 35% | reduction of ZIKV (ZIKV (PRVABC59 strain); 20 μM peptide): 50% | reduction of ZIKV (ZIKV (PRVABC59 strain); 40 μM peptide): 65% | reduction of ZIKV (ZIKV (PRVABC59 strain); 80 μM peptide): 80% | reduction of ZIKV (ZIKV (PRVABC59 strain); 160 μM peptide): 90% | IC50 (ZIKV (PRVABC59 strain); PRVABC59 strain, 2 h): 20 µM | binding to H7 hemagglutinin [3]: binds | activity against subtypes of influenza viruses (influenza viruses): effective against all subtypes of influenza viruses; also recorded: effective against may subtypes of influenza viruses | virucidal activity against DENV 3 (DENV 3): virucidal; also recorded: neutralizes | dose needed for neutralization of DENV 3 (DENV 3; 50 μM versus 160 μM peptide): required higher dose | inhibition of clade B HIV (Clade B HIV): efficiently inhibited | inhibition of clade A HIV (Clade A HIV): efficiently inhibited | inhibition of clade C HIV (Clade C HIV): efficiently inhibited | binding to H2 hemagglutinin [4]: binds | virucidal activity against H3N1 (H3N1): virucidal | virucidal activity against H1N1 (H1N1): virucidal; also recorded: neutralizes | ZIKV viremia in serum (PRVABC ZIKV; day 3 post-infection): reduces | ZIKV viral burden in tissues (PRVABC ZIKV; day 6, eye and spleen): reduces | higher dose required to be effective against DENV 4 (DENV 4): 160 µM | virucidal activity against DENV 4 (DENV 4): virucidal; also recorded: neutralizes | neutralization of DENV 4 (DENV 4; 50 μM peptide): easily neutralized; also recorded: effective | virucidal activity against H1N2 (H1N2): virucidal | virucidal activity against H3N2 (H3N2): virucidal; also recorded: neutralizes | virucidal activity against DENV 1 (DENV 1): virucidal; also recorded: neutralizes | neutralization of DENV 1 (DENV 1; 50 μM peptide): easily neutralized; also recorded: effective | binding to H9 hemagglutinin [5]: binds | binding to H5 hemagglutinin [6]: binds | reduction in ZIKV production (ZIKV [7]; 48 and 72 hours post-infection, peptide 40 μM added after infection): 60-70% | ZIKV in culture supernatant (ZIKV [7]): not detected | ZIKV titers in the supernatants (ZIKV [7]; peptide 40 μM added after infection): significantly reduced

OVA257-264 peptide (ESIINFEK; UniProt P01012 257-264, looked up, fragment) [OVA peptide, control peptide (Invivogen), reference compound]
morphology of ZIKV particles (electron microscopy) (ZIKV [1]): intact virions | expression of ZIKV envelope in Vero cells (immunofluorescence) (ZIKV (PRVABC59)): no such effect | amount of ZIKV RNA detected versus virus-only samples (ZIKV [8]): Comparable amounts | ZIKV in culture supernatant (ZIKV [7]): not detected

PMLLLFFLGTISLSLCQ [Short 12 peptide]
activity of truncated and mutant Yodha peptides against ZIKV compared with parent peptide (ZIKV (PRVABC59 strain)): significantly improved activity | efficiency against DENV3 infection compared with full length Yodha peptide (DENV 3; dose escalation): more efficient

PMLLLFFLGTISLSLCQDDQERC [S 1P Yodha]
activity of truncated and mutant Yodha peptides against ZIKV compared with parent peptide (ZIKV (PRVABC59 strain)): significantly more effective

PMLLLFFLGTISLSLCQEEERGA [Variant 12]
effect against ZIKV relative to Yodha peptide (ZIKV (PRVABC59 strain); FIG. 7C): 1.6 fold

SMLLLFFAGTISLSLCQDDQERC [peptide 8]
virucidal activity of alanine-scanning mutants compared with Yodha peptide (ZIKV (PRVABC59 strain); Yodha set as zero, FIG. 6B): statistically significant (p=0.02) antiviral activity than the parental peptide

SMLLLFFLGTISLSLCQ [short Yodha peptide]
activity of truncated and mutant Yodha peptides against ZIKV compared with parent peptide (ZIKV (PRVABC59 strain)): significantly improved activity
